Assay results published in ChEMBL document CHEMBL1862790, “Optimisation of fenarimol series for the treatment of Chagas disease”.
pIC50: −log10 of the molar value.

Columns and labels:
Trypanosoma cruzi [1] = test: microbe, parasite or virus in culture; type: functional, Tulahuen LacZ, Clone C4; settings: Trypanosoma cruzi, Tulahuen LacZ, Clone C4
Trypanosoma cruzi [2] = test: microbe, parasite or virus in culture; type: functional, organism-based, Tulahuen LacZ, Clone C4; settings: Trypanosoma cruzi, Tulahuen LacZ, Clone C4
[3] = DNDI: Cytotoxicity against L-6 rat myoblasts from skeletal muscle cells; settings: L6 rat skeletal muscle myoblast cells, IC50

IC90 (Trypanosoma cruzi [1]) [nM]	pIC50 (Trypanosoma cruzi [2])	SMILES	pIC50 [3]
900	6.59	O=S(=O)(NC1CCN(C(c2ccc(C(F)(F)F)cc2)c2cnccn2)CC1)c1ccccc1 (centres undefined)	4.25
940	6.35	CS(=O)(=O)N1CCC(CNC(c2ccc(C(F)(F)F)cc2)c2cnccn2)CC1 (centres undefined)	< 4.00
3170	5.84	CC(=O)NC1CCN(C(c2ccc(C(F)(F)F)cc2)c2cnccn2)CC1 (centres undefined)	< 4.00
720	6.70	O=C(NC1CCN(C(c2ccc(C(F)(F)F)cc2)c2cnccn2)CC1)c1ccccc1 (centres undefined)	< 4.00
> 1000	6.23	O=C(NC(c1ccc(C(F)(F)F)cc1)c1cnccn1)c1ccc(C(F)(F)F)cc1 (centres undefined)	4.21
320	7.18	O=S(=O)(c1ccccc1)N1CCN(C(c2ccc(Cl)cc2)c2cncnc2)CC1 (centres undefined)	< 4.12
3020	5.91	CS(=O)(=O)NC1CCN(C(c2ccc(C(F)(F)F)cc2)c2cnccn2)CC1 (centres undefined)	< 4.00
870	6.60	O=C(NC1CCN(C(c2ccc(C(F)(F)F)cc2)c2cnccn2)CC1)C1CCCCC1 (centres undefined)	< 4.00
> 1000	< 6.00	CC(C)S(=O)(=O)NC(c1ccc(C(F)(F)F)cc1)c1cnccn1 (centres undefined)	< 4.00
68	7.57	CC(C)(C)OC(=O)N1CCN(C(c2ccc(Cl)cc2)c2cccnc2)CC1 (centres undefined)	4.32
> 1000	< 6.00	O=C(Cc1ccccc1)NC(c1ccc(C(F)(F)F)cc1)c1cnccn1 (centres undefined)	< 4.00
> 1000	< 6.00	O=S(=O)(NC(c1ccc(C(F)(F)F)cc1)c1cnccn1)C1CCCCC1 (centres undefined)	4.07
280	6.89	CC(C)(C)OC(=O)N1CCN(C(c2ccc(Cl)cc2)c2cncnc2)CC1 (centres undefined)	< 4.00
> 1000	6.07	O=C(NC(c1ccc(C(F)(F)F)cc1)c1cnccn1)c1ccc(Cl)cc1 (centres undefined)	4.21
> 1000	< 6.00	CCN1CCC(NC(c2ccc(C(F)(F)F)cc2)c2cnccn2)CC1 (centres undefined)	< 4.00
260	7.12	CC(C)(C)OC(=O)N1CCC(CNC(c2ccc(C(F)(F)F)cc2)c2cnccn2)CC1 (centres undefined)	4.13
> 1000	< 6.00	CN(C)C(=O)NC(c1ccc(C(F)(F)F)cc1)c1cnccn1 (centres undefined)	< 4.00
410	6.74	CN(C)C(=O)c1cccc(C(O)(c2ccc(Cl)cc2)c2cccnc2)c1 (centres undefined)	< 4.00
950	6.27	O=C(Cc1ccccc1)N1CCC(NC(c2ccc(C(F)(F)F)cc2)c2cnccn2)CC1 (centres undefined)	4.15
720	6.64	CC(C)S(=O)(=O)N1CCN(C(c2ccc(Cl)cc2)c2cncnc2)CC1 (centres undefined)	< 4.00
880	6.26	CC(C)CS(=O)(=O)NC1CCN(C(c2ccc(C(F)(F)F)cc2)c2cnccn2)CC1 (centres undefined)	4.21
280	6.82	CCN(CC)C(=O)c1cccc(C(O)(c2ccc(Cl)cc2)c2cccnc2)c1 (centres undefined)	< 4.00
940	6.43	CC(C)C(=O)N1CCN(C(c2ccc(Cl)cc2)c2cncnc2)CC1 (centres undefined)	< 4.00
> 1000	< 6.00	OC(c1cccnc1)c1ccc(Cl)cc1F (centres undefined)	< 4.00
850	6.59	CCS(=O)(=O)N1CCN(C(c2ccc(Cl)cc2)c2cncnc2)CC1 (centres undefined)	< 4.00
> 1000	< 6.00	CCC(=O)NC(c1ccc(C(F)(F)F)cc1)c1cnccn1 (centres undefined)	< 4.00
140	7.33	CCS(=O)(=O)N1CCN(C(c2ccc(Cl)cc2)c2cccnc2)CC1 (centres undefined)	< 4.00
400	6.80	O=C(NCc1ccccc1)c1cccc(C(O)(c2ccc(Cl)cc2)c2cccnc2)c1 (centres undefined)	4.08
